Experimental data from US20240110004A1 (Northwestern University, priority 2022, published 2024).
pKd: −log10 of the molar value. Where no end group is shown, it is not given here.

Key:
[1] = biological target: T1, interaction between VCP and mtHtt (Homo sapiens, UniProt P55072); assay: VCP binding assay: association of VCP to mtHtt by immunoprecipitation and western blot in HEK293 cells; type: cell-based; conditions: HEK293 cells co-transfected with GFP-VCP and myc-Q73 FL, 3 μM, three doses
T1 construct: GFP; expressed in transfected cells; host or cells: HEK293
Procedure: Therefore, target engagement protein binding assays were conducted. HEK293 cells were cultured and plated one day before treatment. Cells were pre-treated with HV3-TAT or PLPs at 3 μM for 2 h. Cells were then co-transfected with GFP-VCP and myc-Q73 FL plasmids. Cells were treated with a second dose of peptide or PLPs 6 hours after transfection, and a final third dose of peptide or PLPs treatment was administered 24 hours after transfection. Cell total lysate was harvested 48 hours after transfection, and to confirm binding of PLPs to VCP in cells, association of VCP to mtHtt was quantified by immunoprecipitation (IP) followed by western blot upon treatment of HV3-TAT peptide and PLPs.

HdhQ111 cells [2] = assay: Cell viability (cell rescue) of serum-starved HdhQ111 cells; type: cell-based, mouse; conditions: 3 μM with respect to peptide, once a day for 3 days; compared to the vehicle control
Procedure: FIG. 3A: Cell viability of HV3-TAT peptide and PLPs. Compounds treated to the HdhQ111 cells once a day for 3 days. Concentration was 3 μM with respect to peptide. FIG. 3B: VCP binding assay results for HV3-TAT, P1, P2, and P4.
Cell Viability Methods: In vitro assays were carried out to examine the bioactivity of the PLPs, P1, P2, P3, and P4 and to compare against the known, active HV3-TAT. […] HdhQ111 cells were immortalized from knock-in mice carrying 111 CAG repeats in the mouse Htt gene.
To verify that the PLPs retain bioactivity after being exposed to enzymes or serum treatments, the viability of HD mouse mutant striatal HdhQ111 cells was assessed following treatment with HV3-TAT and P1. […] Cells were maintained at 33° C. and 5% CO2 with a relative humidity of 95%. HdQ111 cells were plated in 96-well plates at a density of 5000 per well and then left to attach for 24 h. Cells were treated with HV3-TAT or PLPs at 3 μM with respect to peptide once a day, for 3 days. The medium was replaced every day. After 72 h, cells were washed 3 times with PBS buffer. At this point, 20 μL of CTB reagent in 80 uL of medium was added, and the cells incubated for 3 hours at 37° C. Fluorescence was measured at 590 nm with excitation at 560 nm using a Perkin Elmer EnSpire plate reader. The average background fluorescence of CTB in media without cells was subtracted from the average fluorescence readings of the experimental wells. Viability was calculated as the average background-subtracted signal in a well compared to that of a negative control well (treatment with vehicle or media). Three replicates were performed for each independent sample. 10% DMSO was used as a positive control and untreated cells in complete medium as a negative control. Viability is reported as a percentage of untreated cells.

VCP = biological target: T2, VCP (Homo sapiens, UniProt P55072); assay: Bio-layer interferometry (BLItz) binding to VCP
T2 construct: purchased Antibodies-online
Procedure: FIG. 14A-14B: Biolayer Interferometry (BLItz) measurements from in vitro assay evaluating binding between P1 and VCP (FIG. 14A) and between HV3-TAT peptide and VCP (FIG. 14B). FIG. 14A: lines from top to bottom: 100 μM, 10 μM, and 750 nM. FIG. 14B: lines from top to bottom: 10 μM, 7.5 μM, 5 μM, and 1.25 μM.
BLI Methods: With cellular VCP engagement verified as discussed in Example 2 (and shown in FIG. 3B), P1 was further assessed for VCP binding via Bio-layer Interferometry (BLI) to further study the interaction compared to HV3-TAT peptide. Binding affinity was measured by using BLItz instrument. The anti-HIS sensor (HIS2) was hydrated before the installation. After the sensor installation to the BLItz instrument, histidine tagged VCP proteins (50 μg/ml in sodium acetate buffer at pH 6.5) were immobilized on the sensor. HV3-TAT and P1 were dissolved in Tris buffer (pH 8.4) with a range of concentrations. Using BLItz instrument, the dissociation constant (KD), on-rate (ka) and off-rate (kd) of each analyte were measured.

HdhQ111 cells [3] = assay: Mitochondrial fragmentation assay; type: cell-based, mouse; conditions: compared to vehicle treatment group, at least 100 cells per group
Procedure: FIG. 8: Mitochondrial fragmentation assay. The percentage of HdhQ111 cells with fragmented mitochondria relative to the total number of cells was quantitated. At least 100 cells per group were counted.
FIG. 9: Mitochondrial fragmentation assay. Mitochondrial morphology was determined by staining cells with anti-Tom20 antibody. Nuclei: Hoechst 33342 stain. […] Scale Bars: 60 μm; 12 μm for inset.
Mitochondrial Fragmentation Methods: As preventing the fragmentation of the mitochondria is important for maintaining the health of striatal cells in the HD in vitro model, the PLP's abilities were tested in this regard.

[4] = bio-layer interferometry, VCP protein

T2 sequence (P55072 whole entry, species assumed): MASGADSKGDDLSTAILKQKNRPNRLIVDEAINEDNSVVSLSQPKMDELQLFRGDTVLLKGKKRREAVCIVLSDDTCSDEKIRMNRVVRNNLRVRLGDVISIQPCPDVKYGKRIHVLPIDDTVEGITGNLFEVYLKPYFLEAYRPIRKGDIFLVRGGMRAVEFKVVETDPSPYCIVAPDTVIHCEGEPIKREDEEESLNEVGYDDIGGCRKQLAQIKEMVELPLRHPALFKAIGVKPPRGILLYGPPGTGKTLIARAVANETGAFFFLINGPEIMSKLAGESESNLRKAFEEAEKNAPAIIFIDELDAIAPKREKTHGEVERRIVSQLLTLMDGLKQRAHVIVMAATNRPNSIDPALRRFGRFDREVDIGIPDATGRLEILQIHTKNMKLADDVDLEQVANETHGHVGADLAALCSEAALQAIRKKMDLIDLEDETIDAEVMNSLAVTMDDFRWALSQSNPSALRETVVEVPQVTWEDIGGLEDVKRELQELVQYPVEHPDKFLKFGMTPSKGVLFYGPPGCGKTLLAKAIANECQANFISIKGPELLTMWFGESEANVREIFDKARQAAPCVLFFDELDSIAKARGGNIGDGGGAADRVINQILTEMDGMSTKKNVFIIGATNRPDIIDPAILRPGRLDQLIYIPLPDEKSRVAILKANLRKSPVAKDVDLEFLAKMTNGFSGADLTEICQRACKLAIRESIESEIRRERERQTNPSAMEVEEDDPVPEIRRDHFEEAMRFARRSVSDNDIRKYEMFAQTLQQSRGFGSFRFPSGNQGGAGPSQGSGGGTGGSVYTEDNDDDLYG
T1 sequence (P55072 whole entry): as the sequence (P55072 whole entry, species assumed) above

Row | Substance | association of VCP to mtHtt (VCP binding) [1] | cell viability (HdhQ111 cells [2]) | decrease in dissociation constant compared to the HV3-TAT peptide (VCP; BLI, VCP) | fragmented mitochondria (HdhQ111 cells [3]) | pKd (VCP; BLI, VCP) | koff (VCP; [4]) | kon (VCP; [4])
1 | P1: PLP homopolymer having peptide side chains of SEQ ID: 1 (HVLVMSATRR), made by ROMP of norbornene peptide monomer M1 (also: side chains of polynorbornene homopolymer (PLP, ROMP of norbornene peptide monomer)) | exhibited evidence for binding | higher significance than P3 | more than 150 fold | significantly fewer fragmented mitochondria | – | – | –
2 | peptide sequence HVLVMCAT (HV3) coupled to the cell penetrating, HIV-derived TAT peptide [HV3-TAT, reference compound] | exhibited evidence for binding | significant increases in cell viability | – | significantly fewer fragmented mitochondria | 4.85 | 0.023 s⁻¹ | 1600 M⁻¹ s⁻¹
